Columns and labels:
Solubility of triclosan = type: physicochemical
[1] = tested on: fatty acid synthesis in Plasmodium falciparum; conditions: cited from earlier work
malaria parasites = conditions: Surolia 2001, cited from earlier work
[2] = human, in vivo, 552 mg
Procedure: Four volunteers were invited randomly to take part in the trial. The volunteers were in a rested and fasted state when the trial began. A single dose of 552 mg (two soft gelatine capsules) was administered and blood samples were drawn 15 times over 36 hours.
Quantitative analysis of the blood samples was conducted using an HPLC method developed and validated at the Research Institute for Industrial Pharmacy. Results of the analysis were evaluated statistically and values for AUC, Cmax and tmax were obtained.
A) Chromatographic Condition: • Analytical instrument: HP1050 series HPLC with a pump, autosampler, UV detector and Chemstation Rev.
B) Sample Preparation with enzymatic hydrolysis: • 1. Pipet 1 ml of plasma into a 5 ml siliconised glass test tube. • 2. Add 1 ml of 0.2 M sodium acetate-acetic acid buffer, pH 5.0. • 3. […] Vortex mix for 10 seconds, seal and incubate at 40° C. for 12 hours. • 5. Add 0.5 ml of the internal standard solution and centrifuge at 14000 rpm (4900 RCF) for 10 minutes before applying to the SPE columns.
C) Internal Standard Solution: • 1. Weight approximately 5 mg of acenaphthene accurately and dissolve in 250 ml of solvent. • 2. Add 0.5 ml of this solution to all standards and samples.
D) Standard Solution: • 1. […] Make further dilutions of 5 ml to 100 ml and 10 ml to 50 ml in water to obtain 80, 16- and 4.0 μg/ml stock solutions.
3. […]

[3] = cited from earlier work
[4] = topical and oral; Bhargava & Leonard 1996; cited from earlier work

## Oc1cc(Cl)ccc1Oc1ccc(Cl)cc1Cl [triclosan]
Solubility of triclosan
  solubility in oils: very soluble in oils
[1]; Surolia and Surolia (2001:168), printed in brackets beside the μM value
  concentration sufficient for 50% inhibition of fatty acid synthesis: 580 ng/mL
[1]; read-out: concentration sufficient for 50% inhibition of fatty acid synthesis, Surolia and Surolia (2001:168)
  IC50: 3000 nM
Malaria parasites
  activity against malaria parasites: active against malaria parasites
Malaria parasites; malaria
  effective dose: 28 to 38 mg/kg
[2]
  bioavailability: good in three of the four volunteers
[3]
  solubility in water: very low solubility in water
[4]
  safety in toxicity studies: safe topically as well as orally

Reference: patent US20050142204A1 (priority 2001, published 2005)
